# In publication PMC9743428 (ACS Medicinal Chemistry Letters, 2022):
# Assays:
# FFAR1 = FFAR1 (Homo sapiens, UniProt O14842); assay: IP accumulation assay in transiently transfected COS7 cells, FFAR1; format: cell-based; settings: for improved potency on FFAR1: as compared to the unsubstituted phenyl 54; for improved potency on FFAR1 / reduction of potency on FFAR1: range for the group
# FFAR4 = target: T1, FFAR4 (Homo sapiens, UniProt Q5NUL3); assay: IP accumulation assay in transiently transfected COS7 cells, FFAR4; format: cell-based
# T1 sequence (Q5NUL3 1-361): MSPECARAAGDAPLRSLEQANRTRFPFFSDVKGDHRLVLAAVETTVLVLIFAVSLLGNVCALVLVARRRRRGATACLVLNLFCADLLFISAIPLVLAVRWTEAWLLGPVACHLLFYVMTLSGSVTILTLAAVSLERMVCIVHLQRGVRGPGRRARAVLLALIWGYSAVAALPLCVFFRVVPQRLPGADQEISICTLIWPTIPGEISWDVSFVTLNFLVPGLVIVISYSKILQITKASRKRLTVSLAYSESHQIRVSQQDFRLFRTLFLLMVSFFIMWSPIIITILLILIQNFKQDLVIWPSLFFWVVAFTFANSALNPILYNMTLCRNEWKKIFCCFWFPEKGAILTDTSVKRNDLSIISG
# [1] = test system: FFAR1 mutants (Y12, E65, A66, K259, L262); assay: Mutagenesis of the extracellular binding site, IP accumulation; format: cell-based, human
# FFAR1 A83F = FFAR1 A83F (Homo sapiens, UniProt O14842, A83F); assay: Mutagenesis, IP accumulation, FFAR1 A83F mutant; format: cell-based
# FFAR1 K259A = assay: Mutagenesis, IP accumulation, FFAR1 K259A mutant; format: cell-based, human
# FFAR1, sequence (O14842 whole entry): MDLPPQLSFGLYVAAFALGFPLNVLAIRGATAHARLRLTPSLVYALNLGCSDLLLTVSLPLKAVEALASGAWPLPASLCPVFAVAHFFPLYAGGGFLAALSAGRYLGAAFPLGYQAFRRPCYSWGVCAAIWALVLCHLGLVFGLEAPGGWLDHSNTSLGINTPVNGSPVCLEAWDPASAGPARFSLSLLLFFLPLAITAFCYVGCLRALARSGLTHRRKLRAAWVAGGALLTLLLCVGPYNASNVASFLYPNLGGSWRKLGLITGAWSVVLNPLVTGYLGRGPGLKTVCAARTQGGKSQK
# FFAR1 A83F, sequence (O14842 whole entry A83F): as the sequence (O14842 whole entry) above, with A83F counted along it
structure (smiles),measurement,setting,value
Cc1ccc(Nc2nc(N)nc(COc3cc(N4CCCC4=O)cc(C(F)(F)F)c3)n2)cc1Cl [compound 38],selectivity for FFAR1 over FFAR4,FFAR1,selective
Cc1cc(OCc2nc(N)nc(NCC(c3c(F)cccc3F)N(C)C)n2)cc(N2CCCC2=O)c1 (centres unmarked) [compound 93],activity on FFAR4,FFAR4,loss of activity on FFAR4
Cc1cc(OCc2nc(N)nc(NCCc3cccc4c3OC(F)(F)O4)n2)cc(N2CCCC2=O)c1 [compound 101],selectivity for FFAR1 over FFAR4,FFAR1,highly FFAR1-selective
Cc1cc(OCc2nc(N)nc(NCCc3cccc(C(F)(F)F)c3)n2)cc(N2CCCC2=O)c1 [compound 61],improved potency on FFAR1,FFAR1,2–8 fold
Cc1cc(OCc2nc(N)nc(NCCc3cccc(Cl)c3)n2)cc(N2CCCC2=O)c1 [compound 58],improved potency on FFAR1,FFAR1,2–8 fold
Cc1cc(=O)oc2cc(OCc3nc(N)nc(Nc4ccc(C5CC5)cc4)n3)ccc12 [compound 7],activity on FFAR4,FFAR4,entirely inactive on FFAR4
Cc1cc(OCc2nc(N)nc(NCCc3c(C)cccc3C)n2)cc(N2CCCC2=O)c1 [compound 87],reduction of potency on FFAR1,FFAR1; versus compound 54,2−3 fold
Cc1cc(OCc2nc(N)nc(NCCc3ccc(C)cc3C)n2)cc(N2CCCC2=O)c1 [compound 85],reduction of potency on FFAR1,FFAR1; versus compound 54,2−3 fold
Cc1ccc(Nc2nc(N)nc(COc3cccc(N4CCCC4=O)c3)n2)cc1Cl [compound 28],loss of potency on FFAR1,FFAR1; versus 4-methylchroman-2-one compound 11,~6 fold
Cc1cc(OCc2nc(N)nc(NCCc3cc(Cl)ccc3Cl)n2)cc(N2CCCC2=O)c1 [compound 83],effect of extracellular-site mutations on activity,[1],profound effect
Cc1cc(OCc2nc(N)nc(NCC3(c4cccc(Cl)c4)CC3)n2)cc(N2CCCC2=O)c1 [compound 90],activity on FFAR4,FFAR4,loss of activity on FFAR4
Cc1cc(OCc2nc(N)nc(NCCc3ccccc3F)n2)cc(N2CCCC2=O)c1 [compound 70],selectivity for FFAR1 over FFAR4,FFAR1,highly selective for FFAR1
COc1cccc(CCNc2nc(N)nc(COc3cc(C)cc(N4CCCC4=O)c3)n2)c1 [compound 60],improved potency on FFAR1,FFAR1,2–8 fold
Cc1ccc(Nc2nc(N)nc(COc3cc(OC(F)(F)F)cc(N4CCCC4=O)c3)n2)cc1Cl [compound 46],selectivity for FFAR4 over FFAR1,FFAR4,selective
Cc1ccc(Nc2nc(N)nc(COc3cc(Cl)cc(N4CCCC4=O)c3)n2)cc1Cl [compound 42],gain of potency on FFAR1,FFAR1; versus compound 28,5 fold
Cc1cc(OCc2nc(N)nc(NCCc3cc(F)ccc3F)n2)cc(N2CCCC2=O)c1 [compound 75],loss of efficacy on FFAR1,FFAR1; versus compound 54,−26%
Cc1cc(=O)oc2cc(OCc3nc(N)nc(Nc4ccc(O)cc4)n3)ccc12 [compound 18],activity on FFAR1,FFAR1,inactive
Cc1cc(=O)oc2cc(OCc3nc(N)nc(Nc4cccc(O)c4)n3)ccc12 [compound 17],activity on FFAR1,FFAR1,inactive
Cc1cc(OCc2nc(N)nc(NCCc3ccc(Cl)cc3Cl)n2)cc(N2CCCC2=O)c1 [compound 84],reduction of potency on FFAR1,FFAR1; versus compound 54,2−3 fold
COc1ccc(F)c(-c2ccc(COc3ccc4c(c3)[C@]3(CC4)C[C@H]3C(=O)O)cc2[C@@H]2CCCC2(C)C)c1 [AM-5262],impact of A83F mutation on activity,FFAR1 A83F,none
same,"change in efficacy, K259A versus wild-type",FFAR1 K259A,−32%
same,effect of extracellular-site mutations on activity,[1],no effect on compound potency
Cc1cc(OCc2nc(N)nc(NC3(Cc4cccc(Cl)c4)CC3)n2)cc(N2CCCC2=O)c1 [compound 92],activity on FFAR4,FFAR4,loss of activity on FFAR4
COc1ccc(Cl)cc1CCNc1nc(N)nc(COc2cc(C)cc(N3CCCC3=O)c2)n1 [compound 86],reduction of potency on FFAR1,FFAR1; versus compound 54,2−3 fold
Cc1ccc(Nc2nc(N)nc(COc3ccc4c(C)cc(=O)oc4c3)n2)cc1C [compound 13],activity on FFAR4,FFAR4,entirely inactive on FFAR4
Cc1cc(OCc2nc(N)nc(NCCc3cccc(OC(F)F)c3)n2)cc(N2CCCC2=O)c1 [compound 62],improved potency on FFAR1,FFAR1,2–8 fold
Cc1cc(OCc2nc(N)nc(NCCc3ccccc3N3CCOCC3)n2)cc(N2CCCC2=O)c1 [compound 74],selectivity for FFAR4 over FFAR1,FFAR4,FFAR4-selective
same,activity on FFAR1,FFAR1,entirely inactive
Cc1cc(OCc2nc(N)nc(NCCc3ccccc3)n2)cc(N2CCCC2=O)c1 [compound 54],increase of efficacy on FFAR1,FFAR1; as compared to compound 43,44%
Cc1cc(OCc2nc(N)nc(NCCc3cc(C)ccc3F)n2)cc(N2CCCC2=O)c1 [compound 76],selectivity for FFAR1 over FFAR4,FFAR1,highly selective for FFAR1
Cc1cc(OCc2nc(N)nc(NCC(c3cccc(Cl)c3)N3CCCC3)n2)cc(N2CCCC2=O)c1 (centres unmarked) [compound 94],activity on FFAR4,FFAR4,loss of activity on FFAR4
Cc1cccc(CCNc2nc(N)nc(COc3cc(C)cc(N4CCCC4=O)c3)n2)c1 [compound 59],improved potency on FFAR1,FFAR1,2–8 fold
